Results reported in US20220143183A1, “PHOTOSWITCHABLE PROTACS AND SYNTHESIS AND USES THEREOF” (New York University, priority 2019, published 2022).

Tests used:
[1] = UV-Vis photoswitching and photostationary states (PSS); format: physicochemical
Excerpt: The photoswitching and thermal relaxation properties of one of the lead compounds, PHOTAC-I-3, is shown in FIG. 3A-E. The optimal wavelength to switch to the cis isomer is 390 nm but similar photostationary states (PSS) can be obtained between 380 and 400 nm (FIG. 3C). At 390 nm a PSS of >90% cis could be obtained. Rapid cis to trans isomerization could be achieved by irradiation with wavelengths >450 nm, achieving PSS of ca >70% trans (FIG. 3C). […] Multiple cycles of photochemical isomerization are possible, in keeping with the fatigue-resistance of azobenzene photoswitches (FIG. 3E).
UV-Vis spectrometry was performed on a Varian Cary 60 UV-Visible Spectrophotometer using disposable BRAND UV-Cuvette Disposable Spectrophotometer/Photometer Ultra-Micro Cuvettes, BrandTech (10 mm light path), an Agilent Technologies PCB 1500 Water Peltier system for temperature control and samples were irradiated with a cairn research Optoscan Monochromator with Optosource High Intensity Arc Lamp equipped with a 75 W UXL-S50A lamp from USHIO Inc. Japan and set to 15 nm full width at half maximum.

BRD3 = target: T1, BRD3 (Homo sapiens, UniProt Q15059); test: Western blot of BRD3 levels in RS4;11 cells; format: cell-based
T1 construct: endogenous in cells; host or cells: RS4;11 (ATCC CRL-1873)
Method: (§1) Next, the light dependence of targeted protein degradation was analyzed in RS4;11 cells by western blot analysis of the BET proteins BRD2-4 (FIG. 5). To this end, cells were treated with increasing concentrations of our lead compound, PHOTAC-I-3, for 4 h and pulse-irradiated with 390 nm light (100 ms every 10 s). […] The cereblon-dependent degradation was confirmed by a competition experiment (FIG. 5E), and further validated by siRNA knockdown of cereblon (FIG. 13).
(§2) Cells were incubated with different concentrations of selected compounds. They were placed in a light-proof box and preirradiated for 1 min at 390 nm followed by 100 ms pulses every 10 s or were kept in the dark for 4 h.
(§3) Cultured cells were collected by centrifugation and washed twice with cold PBS. The supernatant was removed and each cell pellet was lysed in 100 μL NP40-Cell-Lysis Buffer+0.1% SDS+1 mM PMSF+ protease inhibitor cocktail (Sigma Aldrich) for 30 min on ice, with vortexing at 10-minute intervals. Afterwards, cells were centrifuged at 13.000 rpm for 10 min at 4° C. Samples were stored on ice and the supernatant was collected for protein concentration determination using a Thermofisher Scientific Pierce™ Coomassie Plus (Bradford) Assay Kit.
The samples were diluted each with 5 μL Laemmli sample buffer Invitrogen (NuPAGE LDS Sample Buffer 4×) and 1 μL DTT, heated at 95° C. for 5 min. […]

BRD2 = target: T2, BRD2 (Homo sapiens, UniProt P25440); test: Western blot of BRD2 levels in RS4;11 cells; format: cell-based
T2 construct: endogenous in cells; host or cells: RS4;11 (ATCC CRL-1873)
Method: as §1
One of the principal advantages of photoswitches over caged compounds is their reversibility.
as §2, §3
The samples were diluted each with 5 μL Laemmli sample buffer Invitrogen (NuPAGE LDS Sample Buffer 4×) and 1 μL DTT, heated at 95° C. for 5 min. Respectively 20 μL of each sample was loaded in a lane of a Bio-Rad Mini-PROTEAN TGX precast Gel, 4-20%, used with tris-glycine SDS Running buffer. The gel ran 5 min at 50 V, then 35 min at 140 V. Next step was the electrotransfer to a polyvinylidene difluoride (PVDF) membrane which was carried out using an iBlot™ 2 Dry Blotting System set to the standard program. After the transfer, the membrane was washed with 25 mL TB ST for 5 min and subsequent incubated in 25 mL of blocking buffer (1×TBST+5% nonfat dry milk, Blotto, Santa Cruz Biotechnology) for 1 h at room temperature. […]

BRD2-4 = test: Western blot of BET proteins in RS4;11 cells, results stated for BRD2-4 together; format: cell-based, human
Method: as §1
The slight effect on c-MYC can be explained by inhibition of BRD4 with the (+)-JQ1 derivative PHOTAC-I-3 in the absence of targeted degradation.
as §2
as §3, with “Kit. […]” for “Kit.”

BRD4 = BRD4 (Homo sapiens, UniProt O60885); test: Immunoblot of BRD4 degradation in MB-MDA-468 cells; format: cell-based; design: Immunoblot analysis after treatment of MB-MDA-231 cells with PHOTAC-I-3 for 18 h at different concentrations; endogenous in cells; host or cells: MB-MDA-231 (A10) and MB-MDA-468 (A11) (so in the source); details: 18 h, 390 nm pulses vs dark
Method: FIG. 10 depicts an immunoblot analysis of PHOTAC-I-3 A) Immunoblot analysis after treatment of MB-MDA-231 cells with PHOTAC-I-3 for 18 h at different concentrations. Cells were either irradiated with 100 ms pulses of 390 nm light every 10 s (left) or kept the dark (right). B) Immunoblot analysis after treatment of MB-MDA-468 cells with PHOTAC-I-3 for 18 h at different concentrations. Cells were either irradiated with 100 ms pulses of 390 nm light every 10 s (left) or kept the dark (right). (MWM, molecular weight marker). C) Immunoblot of BRD4 degradation in RS4;11 cells, promoted by PHOTAC-I-3 (300 nM) after 1 minute of irradiation (100 ms every 10 s), highlighting sustained degradation at the applied dosage.
Photoactivatable degraders and inhibitors of BRD4, c-MYC levels were also affected.

T2 sequence (P25440 whole entry): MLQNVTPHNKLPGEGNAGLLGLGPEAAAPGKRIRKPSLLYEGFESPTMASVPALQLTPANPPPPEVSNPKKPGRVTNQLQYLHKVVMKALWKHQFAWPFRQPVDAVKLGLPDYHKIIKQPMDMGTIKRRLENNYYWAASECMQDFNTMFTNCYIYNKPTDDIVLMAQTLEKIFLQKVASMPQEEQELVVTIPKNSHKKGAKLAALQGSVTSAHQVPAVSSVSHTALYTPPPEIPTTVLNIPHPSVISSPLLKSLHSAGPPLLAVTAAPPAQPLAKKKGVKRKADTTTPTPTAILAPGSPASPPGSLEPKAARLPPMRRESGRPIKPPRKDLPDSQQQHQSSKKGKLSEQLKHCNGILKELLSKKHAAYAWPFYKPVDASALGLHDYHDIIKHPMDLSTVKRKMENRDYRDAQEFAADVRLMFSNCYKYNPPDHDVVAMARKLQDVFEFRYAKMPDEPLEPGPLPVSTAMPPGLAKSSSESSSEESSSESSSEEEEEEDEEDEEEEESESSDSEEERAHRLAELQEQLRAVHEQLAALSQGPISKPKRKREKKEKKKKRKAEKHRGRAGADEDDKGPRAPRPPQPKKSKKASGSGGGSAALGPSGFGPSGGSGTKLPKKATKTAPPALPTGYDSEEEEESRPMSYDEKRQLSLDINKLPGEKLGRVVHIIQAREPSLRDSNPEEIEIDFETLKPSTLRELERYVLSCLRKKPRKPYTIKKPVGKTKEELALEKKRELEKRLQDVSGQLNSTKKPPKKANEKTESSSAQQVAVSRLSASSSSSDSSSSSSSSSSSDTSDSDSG
T1 sequence (Q15059 whole entry): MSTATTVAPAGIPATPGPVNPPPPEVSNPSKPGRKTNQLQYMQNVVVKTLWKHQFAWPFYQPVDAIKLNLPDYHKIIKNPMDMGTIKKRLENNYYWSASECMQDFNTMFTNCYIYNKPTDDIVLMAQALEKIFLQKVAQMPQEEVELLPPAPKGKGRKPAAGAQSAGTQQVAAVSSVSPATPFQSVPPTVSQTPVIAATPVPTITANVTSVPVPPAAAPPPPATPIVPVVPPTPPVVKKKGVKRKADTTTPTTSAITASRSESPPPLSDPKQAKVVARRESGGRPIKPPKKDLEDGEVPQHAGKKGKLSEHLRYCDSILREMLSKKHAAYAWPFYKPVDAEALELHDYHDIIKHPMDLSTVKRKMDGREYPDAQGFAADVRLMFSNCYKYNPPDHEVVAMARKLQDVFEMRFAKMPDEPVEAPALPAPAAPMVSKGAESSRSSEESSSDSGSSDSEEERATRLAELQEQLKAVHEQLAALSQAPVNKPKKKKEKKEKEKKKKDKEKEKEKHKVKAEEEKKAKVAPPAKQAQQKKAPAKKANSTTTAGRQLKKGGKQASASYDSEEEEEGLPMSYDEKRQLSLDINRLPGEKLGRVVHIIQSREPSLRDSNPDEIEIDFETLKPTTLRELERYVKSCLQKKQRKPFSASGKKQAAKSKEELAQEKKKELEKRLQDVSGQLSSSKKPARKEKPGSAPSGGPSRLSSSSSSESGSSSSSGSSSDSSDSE

COc1cc(/N=N/c2cccc3c2CN(C2CCC(=O)NC2=O)C3=O)cc(OC)c1OCC(=O)NCCCCNC(=O)C[C@@H]1N=C(c2ccc(Cl)cc2)c2c(sc(C)c2C)-n2c(C)nnc21 (stereo partly drawn) [PHOTAC-I-3, 2-((S)-4-(4-chlorophenyl)-2,3,9-trimethyl-6H-thieno[3,2-f][1,2,4]triazolo[4,3-a][1,4]diazepin-6-yl)-N-(4-(2-(4-((E)-(2-(2,6-dioxopiperidin-3-yl)-1-oxoisoindolin-4-yl)diazenyl)-2,6-dimethoxyphenoxy)acetamido)butyl)acetamide]
optimal wavelength to switch to the cis isomer [1]: 390 nm | photostationary state (PSS), cis fraction ([1]; at 390 nm): > 90% | photostationary state (PSS), trans fraction ([1]; irradiation with wavelengths >450 nm): > 70% | exposure time after which BRD3 is largely absent (BRD3; 1 μM, 390 nm pulse irradiation): 1.5 h | BRD3 levels (BRD3; 4 h, irradiated with violet light (390 nm)): significantly reduced | exposure time after which BRD2 is largely absent (BRD2; 1 μM, 390 nm pulse irradiation): 1.5 h | cellular BRD2 levels in rescue experiment (BRD2; 1 min 390 nm, then pulse irradiated with 525 nm): initially decreased but, subsequently, recovered faster than when left in the dark | BRD2 degradation (BRD2; 4 h, 390 nm, compared with BRD3 and BRD4): degraded to a lesser extent and within a narrower concentration range | BRD2-4 levels with CRL inhibitor MLN4924 (BRD2-4; 1 μM together with MLN4924 (2.5 μM), 390 nm irradiation): rescued BRD2-4 levels | BRD levels in the dark, time course (BRD2-4; 1 μM, in the dark): no effect on BRD levels | BRD4 degradation (BRD4): light-dependent degradation of BRD4
